System: C. albicans biofilm formation
Test: Biofilm assay (crystal violet, 96-well plate)
Format: cell-based, Candida albicans
Procedure: C. albicans (MEN, serotype B, clinical isolate from a corneal infection) was maintained on sabouraud dextrose agar, and cultures were grow to the stationary phase ((1–2) × 10^8 cells/mL) overnight in YEPD broth (1% (w/v) yeast extract, 2% (w/v) bacteriological peptone, 2% (w/v) glucose) at 30 °C, and 200 rpm. Stationary phase yeast cells were harvested, washed with PBS, and resuspended at a density of 1 × 10^8 cells/mL in PBS.
C. albicans cells were washed twice with PBS and enumerated before being resuspended in RPMI to give a cell density of (2 × 10^7 cells/mL). Compounds were resuspended in PBS to give a concentration of 2 mg/mL. The compounds (250 μL) were mixed with RPMI (250 μL) in a 1:1 ratio to give a concentration of 1 mg/mL. PBS (250 μL) was mixed with RPMI (250 μL).
C. albicans cells (500 μL, 2 × 10^7 cells/mL) were incubated with compounds (1 mg/mL) in a 1:1 ratio to give a final cell density to concentration ratio of […]. The suspension was incubated for 3 h at rt and mixed by vortex every 20 min to prevent cells from falling out of solution. Cell suspension (100 μL) was added to wells of a 96-well flat bottom plate. The plate was incubated at 37 °C for 24 h. […] The plate was read at 550 nm in a 96-well plate reader. The percentage reduction in biofilm was calculated by dividing the absorbance value of the treated cells into that of the control.

O=C[C@H](O)[C@@H](O)[C@@H](O)[C@H](O)CO [D-galactose]
% Change in biofilm formation (Figure 4, relative to PBS control, compound 1 mg/mL mixed 1:1 with cells, 24 h at 37 °C, crystal violet, 550 nm, error: standard deviation): 114%
effect on biofilm formation (in words) (biofilm growing conditions, positive control): promoted the formation of the biofilm

Source: paper PMC8154258, “Multivalent Presentations of Glycomimetic Inhibitor of the Adhesion of Fungal Pathogen Candida albicans to Human Buccal Epithelial Cells” (Bioconjugate Chemistry, 2021)
